Results from US12486253B2, “Therapeutics for the degradation of mutant BRAF” (C4 THERAPEUTICS, INC., priority 2021, dated 2025).
Entries after “also recorded” stand apart in the source; their conditions may differ.

Assays:
[1] = molecular target: ARAF (Homo sapiens, UniProt P10398); assay: Global proteomics profiling, JURKAT cells; type: cell-based; design: endogenous in cells; host or cells: JURKAT, ATCC TIB-152 (A11.2); conditions: 300 nM, 24 hours
Experimental: Each cell line was treated in duplicate with either DMSO or Compound 157 (final concentration 300 nM) for 24 hours in an incubator at 37° C. with 5% CO2. After the 24-hour incubation, cells were harvested, washed twice with PBS, and snap frozen in liquid nitrogen. Samples were re-suspended in lysis buffer [8 M urea, 50 mM HEPES (pH 8.5), 50 mM NaCl, 1× protease inhibitor cocktail] and lysed by sonication at 4° C. with 85% amplitude in a pulse setting with 30 seconds on and 30 seconds off for a total sonication time of 5 minutes. Lysates were centrifuged at maximum speed for 10 minutes at 4° C. and the supernatant collected, reduced for 1 hour at room temperature with 5 mM TCEP, and the cysteine residues were then alkylated with 15 mM iodoacetamide (room temperature, in dark, 30 minutes). Protein content was extracted by methanol-chloroform precipitation and subsequent ice-cold acetone washes. Protein pellets were resuspended in 8 M urea, 50 mM HEPES (pH 8.5) buffer and protein concentrations were measured by BCA assay. […]
For peptide tandem mass tag (TMT) labeling, 100 μg of peptides per sample was prepared at […] concentration in 200 mM HEPES (pH 8.5), 30% acetonitrile (ACN) and each the specific TMT reagent. […] TMT reporter ion intensities were quantified by extracting the signal-to-noise ratio for each. […]

[2] = tested on: ERK phosphorylation; assay: Western blot of ERK phosphorylation in A375 cells expressing NRAS^Q61K; type: cell-based; conditions: 24 hours
[3] = molecular target: WT BRAF (Homo sapiens, UniProt P15056); assay: Western blot of WT BRAF and pERK levels in HCT-116 cells; type: cell-based; conditions: HCT-116 cells with endogenous WT BRAF
[4] = molecular target: T1, SALL4 (Homo sapiens, UniProt Q9UJQ4); assay: SALL4 protein levels after treatment; type: cell-based; conditions: various concentrations
T1 construct: endogenously expressing SALL4 with HiBiT fusion tag via CRISPR; endogenous in cells; host or cells: KELLY.2 (from KELLY, DSMZ ACC-No. 355)

[5] = tested on: A375 NRAS^Q61K mutant melanoma cell line xenograft; assay: In vivo efficacy in A375 NRAS^Q61K mutant melanoma xenograft; design: species or system BALBc/Nude mice; conditions: oral gavage
[6] = molecular target: T2, GSPT1 (Homo sapiens, UniProt P15170); assay: GSPT1 protein levels after treatment; type: cell-based; conditions: various concentrations
T2 construct: endogenously expressing GSPT1 with HiBiT fusion tag via CRISPR; endogenous in cells; host or cells: HEK293T.114

[7] = tested on: A375 tumors; assay: In vivo efficacy in A375 xenograft tumors; design: species or system BALB/c nude mice; conditions: mice
Experimental: The efficacy study was conducted in female BALB/c nude mice bearing A375 tumors. Female BALB/c nude mice were inoculated subcutaneously in the right flank with A375 tumor cells (5×10^6) in 0.2 mL of PBS supplemented with Matrigel (at a 1:1 ratio) for tumor development. Tumor volume was measured twice weekly in two dimensions using calipers, and volume (mm^3) was calculated using the formula: V=0.5 a×b^2 where a and b are the long and short diameters of the tumor in mm, respectively. Once the tumors reached an average tumor volume of 246 mm^3 (16 days after implantation), the animals were divided randomly into groups of 6, stratified to result in about equal average tumor sizes in each treatment group and treatment began on Day 0.
All agents were administered to mice bearing A375 tumors orally (PO), daily (QD; encorafenib), twice a day (BID) or three times a day (TID) for Compound 157, for 21 or 35 days. encorafenib was dosed at 35 mg/kg and Compound 157 at 0.1, 0.3, 1, 3 or 10 mg/kg twice a day or 2 mg/kg three times a day. Compound 157 was formulated in 20% PEG400+80% (25% SBECD). Body weight and MTV were measured on a 2× weekly schedule and reported as Mean±SEM.

[8] = molecular target: BRAF V600E (Homo sapiens, UniProt P15056, V600E); assay: Western blot of engineered HEK-293T cells expressing BRAF V600E; type: cell-based; conditions: lentivirus expression
BRAF V600E, sequence (P15056 whole entry V600E): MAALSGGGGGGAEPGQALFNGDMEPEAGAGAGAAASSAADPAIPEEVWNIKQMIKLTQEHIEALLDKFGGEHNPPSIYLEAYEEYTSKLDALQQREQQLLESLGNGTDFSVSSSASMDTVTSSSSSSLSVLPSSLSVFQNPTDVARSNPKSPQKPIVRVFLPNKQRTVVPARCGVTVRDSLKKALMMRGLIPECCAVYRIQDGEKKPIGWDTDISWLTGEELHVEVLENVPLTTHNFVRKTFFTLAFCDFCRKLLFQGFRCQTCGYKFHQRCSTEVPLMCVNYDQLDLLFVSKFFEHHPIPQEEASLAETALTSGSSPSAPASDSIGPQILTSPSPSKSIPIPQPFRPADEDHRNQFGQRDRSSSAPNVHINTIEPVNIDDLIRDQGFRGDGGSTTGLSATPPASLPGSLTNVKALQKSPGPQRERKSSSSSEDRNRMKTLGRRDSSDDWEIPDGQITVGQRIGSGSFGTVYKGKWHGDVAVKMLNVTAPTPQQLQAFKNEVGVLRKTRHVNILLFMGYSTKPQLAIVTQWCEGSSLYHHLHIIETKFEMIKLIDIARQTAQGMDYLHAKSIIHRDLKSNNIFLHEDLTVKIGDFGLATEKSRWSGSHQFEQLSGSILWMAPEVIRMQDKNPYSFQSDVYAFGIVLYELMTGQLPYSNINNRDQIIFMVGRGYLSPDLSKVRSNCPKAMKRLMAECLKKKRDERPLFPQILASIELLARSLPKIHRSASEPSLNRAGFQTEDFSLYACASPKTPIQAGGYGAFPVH

WT BRAF, sequence (P15056 whole entry): as the sequence (P15056 whole entry V600E) above, with E600V counted along it
T1 sequence (Q9UJQ4 whole entry, the tested form may be a part): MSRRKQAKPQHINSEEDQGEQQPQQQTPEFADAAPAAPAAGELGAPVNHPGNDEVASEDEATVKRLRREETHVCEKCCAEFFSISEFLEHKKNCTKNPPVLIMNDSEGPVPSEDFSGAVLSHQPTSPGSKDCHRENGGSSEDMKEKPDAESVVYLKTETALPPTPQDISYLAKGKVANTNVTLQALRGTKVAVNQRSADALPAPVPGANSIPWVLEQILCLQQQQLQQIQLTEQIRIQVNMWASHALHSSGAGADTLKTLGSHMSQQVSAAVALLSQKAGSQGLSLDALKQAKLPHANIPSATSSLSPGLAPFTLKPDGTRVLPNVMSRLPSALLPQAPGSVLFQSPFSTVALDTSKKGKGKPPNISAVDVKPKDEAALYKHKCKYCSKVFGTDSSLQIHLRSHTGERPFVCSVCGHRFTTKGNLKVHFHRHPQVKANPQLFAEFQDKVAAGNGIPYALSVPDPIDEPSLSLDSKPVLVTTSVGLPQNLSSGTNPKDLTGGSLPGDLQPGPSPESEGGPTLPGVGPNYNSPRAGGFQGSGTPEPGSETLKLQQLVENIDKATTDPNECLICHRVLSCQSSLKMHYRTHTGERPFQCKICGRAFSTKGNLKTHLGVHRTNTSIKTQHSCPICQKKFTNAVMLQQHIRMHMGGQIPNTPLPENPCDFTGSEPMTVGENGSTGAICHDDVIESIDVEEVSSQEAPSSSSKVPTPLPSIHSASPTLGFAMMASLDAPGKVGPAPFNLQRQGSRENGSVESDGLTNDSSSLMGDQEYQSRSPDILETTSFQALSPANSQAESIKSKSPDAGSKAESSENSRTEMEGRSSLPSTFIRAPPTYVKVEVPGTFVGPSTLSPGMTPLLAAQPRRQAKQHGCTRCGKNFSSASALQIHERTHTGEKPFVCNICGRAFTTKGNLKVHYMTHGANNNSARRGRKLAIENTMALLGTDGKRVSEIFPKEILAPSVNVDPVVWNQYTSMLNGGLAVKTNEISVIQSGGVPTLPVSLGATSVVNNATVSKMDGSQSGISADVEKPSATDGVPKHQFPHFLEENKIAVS
T2 sequence (P15170 whole entry, the tested form may be a part): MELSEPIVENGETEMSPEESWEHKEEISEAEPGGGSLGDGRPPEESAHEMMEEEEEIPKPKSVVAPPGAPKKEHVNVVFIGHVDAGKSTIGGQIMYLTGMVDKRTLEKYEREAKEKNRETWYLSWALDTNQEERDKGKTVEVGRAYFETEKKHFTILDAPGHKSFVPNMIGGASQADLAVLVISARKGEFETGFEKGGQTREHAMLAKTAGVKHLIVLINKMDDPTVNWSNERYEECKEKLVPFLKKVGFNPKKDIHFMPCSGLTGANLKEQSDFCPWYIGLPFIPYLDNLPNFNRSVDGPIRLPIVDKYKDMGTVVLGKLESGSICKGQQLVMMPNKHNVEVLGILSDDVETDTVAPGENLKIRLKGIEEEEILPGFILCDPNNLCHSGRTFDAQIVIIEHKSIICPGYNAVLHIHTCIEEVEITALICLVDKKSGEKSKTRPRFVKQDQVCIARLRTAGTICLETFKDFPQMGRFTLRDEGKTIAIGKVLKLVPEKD
ARAF, sequence (P10398 whole entry): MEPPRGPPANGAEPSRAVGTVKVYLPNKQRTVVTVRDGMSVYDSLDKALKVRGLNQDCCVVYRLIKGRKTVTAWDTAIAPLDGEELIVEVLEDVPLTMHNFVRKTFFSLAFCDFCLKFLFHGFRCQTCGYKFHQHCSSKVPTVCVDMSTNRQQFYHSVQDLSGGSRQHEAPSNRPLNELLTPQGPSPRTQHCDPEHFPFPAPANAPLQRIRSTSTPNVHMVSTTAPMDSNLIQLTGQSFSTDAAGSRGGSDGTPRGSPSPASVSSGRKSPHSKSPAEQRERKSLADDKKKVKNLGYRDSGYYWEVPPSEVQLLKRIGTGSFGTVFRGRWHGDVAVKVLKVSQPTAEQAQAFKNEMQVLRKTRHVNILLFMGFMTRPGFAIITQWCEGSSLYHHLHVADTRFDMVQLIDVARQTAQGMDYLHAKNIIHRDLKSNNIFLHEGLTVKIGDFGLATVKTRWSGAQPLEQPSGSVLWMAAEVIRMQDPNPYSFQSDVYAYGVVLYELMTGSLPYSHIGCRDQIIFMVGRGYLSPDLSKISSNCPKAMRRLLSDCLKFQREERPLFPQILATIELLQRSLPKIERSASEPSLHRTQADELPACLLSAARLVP

Which “ARAF protein level change” value [1] does the source give for `CCN(C)S(=O)(=O)Nc1ccc(F)c(Oc2ccc3ncn([C@H]4COC5(CCN(C(=O)CC6(O)CCN(c7cc8c(cc7F)c(N7CCC(=O)NC7=O)nn8C)CC6)CC5)C4)c(=O)c3c2)c1C#N` [Compound 157, (3R)-3-[6-[2-cyano-3-[[ethyl(methyl)sulfamoyl]amino]-6-fluorophenoxy]-4-oxoquinazolin-3-yl]-8-[2-[1-[3-(2,4-dioxo-1,3-diazinan-1-yl)-5-fluoro-1-methylindazol-6-yl]-4-hydroxypiperidin-4-yl]acetyl]-1-oxa-8-azaspiro[4.5]decane] here?
The value was “unchanged”.

And the “ERK phosphorylation, in combination with trametinib” value ([2]; with 1 nM trametinib)?
The value was “completely suppressed”.

What about the “ERK phosphorylation, alone” value ([2]; without trametinib) of the same molecule?
Its value is “can suppress MAPK signaling”.

And the “WT BRAF levels and phosphorylation of ERK” value [3]?
The value was “minimal impact”.

And the SALL4 protein levels [4]?
The SALL4 protein levels was “steady”.

What about the “tumor response, single agent” value ([5]; single agent) of the same molecule?
The value was “robust tumor growth inhibition; also recorded: efficacious”.

What about the “tumor response, in combination with trametinib” value ([5]; with MEKi trametinib 0.1 mg/kg BID) of the same molecule?
Its value is “tumor regressions”.

What about the GSPT1 protein levels [6] of the same molecule?
Its GSPT1 protein levels is “steady”.

And the “Tumor growth compared to vehicle-treated tumors” value ([7]; 1 mg/kg PO BID)?
Its value is “potent tumor growth inhibition”.

And the “Tumor growth compared to vehicle-treated tumors” value ([7]; 2 mg/kg PO TID)?
The value was “potent tumor growth inhibition”.

And the “Tumor growth compared to vehicle-treated tumors” value ([7]; 3 mg/kg PO BID)?
Its value is “potent tumor growth inhibition”.

And the “Tumor growth compared to vehicle-treated tumors” value ([7]; 10 mg/kg PO BID)?
Its value is “robust tumor growth regression”.

What about the “degradation of BRAF V600E” value [8] of the same molecule?
Its value is “capable of degrading”.
